Reference: PubChem BioAssay AID248 (DTP/NCI, 2004)
Values joined by “and” are separate entries in the source; they are usually repeats but may differ in a detail not shown here. Equal values may be shown once. Toxic doses and inconclusive results are not listed.

System: L1210 leukemia ip in BDF1 mice, survival T/C
Assay: NCI In Vivo Anticancer Drug Screen. Data for tumor model L1210 Leukemia (intraperitoneal) in B6D2F1 (BDF1) mice
Conditions: higher = longer survival
Procedure, shortened: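 Antitumor effect is assessed in tumor-bearing animals. Survival in the compound arm is compared with a vehicle-dosed control arm and expressed as their quotient.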

[1] = endpoint: mean survival time, dose: 100.0 mg/kg/injection, schedule: Q01DX009 (ip), vehicle: Klucel (hydroxypropylcellulose) (HPC)
[2] = endpoint: mean survival time, dose: 200.0 mg/kg/injection, schedule: Q01DX009 (ip), vehicle: Klucel (hydroxypropylcellulose) (HPC)
[3] = endpoint: mean survival time, dose: 400.0 mg/kg/injection, schedule: Q01DX001 (ip), vehicle: Klucel (hydroxypropylcellulose) (HPC)
[4] = endpoint: mean survival time, dose: 25.0 mg/kg/injection, schedule: Q01DX009 (ip), vehicle: Klucel (hydroxypropylcellulose) (HPC)
[5] = endpoint: mean survival time, dose: 50.0 mg/kg/injection, schedule: Q01DX009 (ip), vehicle: Klucel (hydroxypropylcellulose) (HPC)
[6] = endpoint: mean survival time, dose: 100.0 mg/kg/injection, schedule: Q04DX003 (ip), vehicle: saline
[7] = endpoint: mean survival time, dose: 200.0 mg/kg/injection, schedule: Q04DX003 (ip), vehicle: saline
[8] = endpoint: mean survival time, dose: 12.0 mg/kg/injection, schedule: Q04DX003 (ip), vehicle: saline
[9] = endpoint: mean survival time, dose: 100.0 mg/kg/injection, schedule: Q01DX001 (ip), vehicle: saline with Tween-80
[10] = endpoint: mean survival time, dose: 100.0 mg/kg/injection, schedule: Q01DX009 (ip), vehicle: saline with Tween-80
[11] = endpoint: mean survival time, dose: 200.0 mg/kg/injection, schedule: Q01DX009 (ip), vehicle: saline with Tween-80

For `N=c1nc2n(cc1F)[C@@H]1O[C@H](CO)[C@@H](O)[C@@H]1O2`, the T/C [1] was 187 % of control, the T/C [2] was 177 % of control and the T/C [3] was 113 % of control. The T/C (endpoint: mean survival time, dose: 400.0 mg/kg/injection, schedule: Q04DX002 (ip), vehicle: Klucel (hydroxypropylcellulose) (HPC)) was 165 % of control and 173 % of control, the T/C (endpoint: mean survival time, dose: 600.0 mg/kg/injection, schedule: Q04DX002 (ip), vehicle: Klucel (hydroxypropylcellulose) (HPC)) was 180 % of control and the T/C (endpoint: mean survival time, dose: 800.0 mg/kg/injection, schedule: Q01DX001 (ip), vehicle: Klucel (hydroxypropylcellulose) (HPC)) was 116 % of control. For the same molecule, the T/C (endpoint: mean survival time, dose: 2000.0 mg/kg/injection, schedule: Q01DX001 (ip), vehicle: Klucel (hydroxypropylcellulose) (HPC)) was 123 % of control, the T/C (endpoint: mean survival time, dose: 2000.0 mg/kg/injection, schedule: Q01DX001 (ip), vehicle: saline) was 152 % of control and the T/C (endpoint: median survival time, dose: 25.0 mg/kg/injection, schedule: Q03HX024 (ip), vehicle: water) was 255 % of control. The T/C (endpoint: median survival time, dose: 50.0 mg/kg/injection, schedule: Q01DX009 (ip), vehicle: steriod suspending solution) was 175 % of control, the T/C (endpoint: median survival time, dose: 50.0 mg/kg/injection, schedule: Q03HX024 (ip), vehicle: water) was 610 % of control and the T/C (endpoint: median survival time, dose: 100.0 mg/kg/injection, schedule: Q01DX009 (ip), vehicle: steriod suspending solution) was 180 % of control. The T/C (endpoint: median survival time, dose: 100.0 mg/kg/injection, schedule: Q01DX009 (ip), vehicle: water) was 190 % of control, the T/C (endpoint: median survival time, dose: 100.0 mg/kg/injection, schedule: Q03HX024 (ip), vehicle: water) was 390 % of control and the T/C (endpoint: median survival time, dose: 200.0 mg/kg/injection, schedule: Q01DX009 (ip), vehicle: steriod suspending solution) was 205 % of control. For the same molecule, the T/C (endpoint: median survival time, dose: 200.0 mg/kg/injection, schedule: Q01DX009 (ip), vehicle: water) was 240 % of control, the T/C (endpoint: median survival time, dose: 400.0 mg/kg/injection, schedule: Q01DX001 (oral), vehicle: water) was 120 % of control and the T/C (endpoint: median survival time, dose: 400.0 mg/kg/injection, schedule: Q01DX009 (ip), vehicle: steriod suspending solution) was 340 % of control. For the same molecule, the T/C (endpoint: median survival time, dose: 400.0 mg/kg/injection, schedule: Q01DX009 (ip), vehicle: water) was 450 % of control and the T/C (endpoint: median survival time, dose: 800.0 mg/kg/injection, schedule: Q01DX001 (ip), vehicle: water) was 150 % of control.

With `CC(=O)c1cccc(NC(=O)Nc2ncccc2C)c1` the T/C [1] was 102 % of control, the T/C [2] was 101 % of control and the T/C (endpoint: mean survival time, dose: 400.0 mg/kg/injection, schedule: Q01DX009 (ip), vehicle: Klucel (hydroxypropylcellulose) (HPC)) was 98 % of control.

`O=C1c2cc(F)ccc2-c2cc([N+](=O)[O-])ccc21` was tested, and the T/C (endpoint: mean survival time, dose: 100.0 mg/kg/injection, schedule: Q01DX001 (ip), vehicle: carboxymethylcellulose (CMC)) was 94 % of control, the T/C (endpoint: mean survival time, dose: 200.0 mg/kg/injection, schedule: Q01DX001 (ip), vehicle: carboxymethylcellulose (CMC)) was 94 % of control and the T/C (endpoint: mean survival time, dose: 400.0 mg/kg/injection, schedule: Q01DX001 (ip), vehicle: carboxymethylcellulose (CMC)) was 99 % of control.

In the case of `CN(C)/N=N\N(C)C`, the T/C [4] is reported as 98 % of control, the T/C [5] is reported as 103 % of control and the T/C [1] is reported as 101 % of control.

`O=c1cc(Oc2ccccc2)[nH]c(=O)[nH]1` was tested, and the T/C (endpoint: mean survival time, dose: 65.0 mg/kg/injection, schedule: Q01DX001 (ip), vehicle: Klucel (hydroxypropylcellulose) (HPC)) was 112 % of control, the T/C (endpoint: mean survival time, dose: 130.0 mg/kg/injection, schedule: Q01DX001 (ip), vehicle: Klucel (hydroxypropylcellulose) (HPC)) was 93 % of control and the T/C (endpoint: mean survival time, dose: 260.0 mg/kg/injection, schedule: Q01DX001 (ip), vehicle: Klucel (hydroxypropylcellulose) (HPC)) was 93 % of control.

`N#CC(Nc1cc(=O)[nH]c(=O)[nH]1)c1ccccc1` (centres undefined) was tested, and the T/C (endpoint: mean survival time, dose: 100.0 mg/kg/injection, schedule: Q04DX002 (ip), vehicle: Klucel (hydroxypropylcellulose) (HPC)) was 105 % of control and the T/C (endpoint: mean survival time, dose: 200.0 mg/kg/injection, schedule: Q04DX002 (ip), vehicle: Klucel (hydroxypropylcellulose) (HPC)) was 108 % of control.

With `C=CCOCCC(=O)OCC=C` the T/C [5] was 95 % of control, the T/C [1] was 92 % of control and the T/C [6] was 103 % of control. For the same molecule, the T/C [7] was 103 % of control.

`O=C(O)Cc1c(-c2ccccn2)[nH]c2ccccc12` was tested, and the T/C (endpoint: mean survival time, dose: 75.0 mg/kg/injection, schedule: Q01DX001 (ip), vehicle: acetone) was 103 % of control, the T/C (endpoint: mean survival time, dose: 150.0 mg/kg/injection, schedule: Q01DX001 (ip), vehicle: acetone) was 102 % of control and the T/C (endpoint: mean survival time, dose: 300.0 mg/kg/injection, schedule: Q01DX001 (ip), vehicle: acetone) was 94 % of control.

In the case of `C[N+](C)(C)Cc1ccccc1`, the T/C (endpoint: mean survival time, dose: 1.56 mg/kg/injection, schedule: Q01DX009 (ip), vehicle: saline) is reported as 102 % of control, the T/C (endpoint: mean survival time, dose: 3.12 mg/kg/injection, schedule: Q01DX009 (ip), vehicle: saline) is reported as 91 % of control and the T/C (endpoint: mean survival time, dose: 5.0 mg/kg/injection, schedule: Q01DX001 (ip), vehicle: saline) is reported as 98 % of control. For the same molecule, the T/C (endpoint: mean survival time, dose: 6.25 mg/kg/injection, schedule: Q01DX009 (ip), vehicle: saline) was 117 % of control, the T/C (endpoint: mean survival time, dose: 6.5 mg/kg/injection, schedule: Q01DX009 (ip), vehicle: saline) was 100 % of control and the T/C (endpoint: mean survival time, dose: 10.0 mg/kg/injection, schedule: Q01DX001 (ip), vehicle: saline) was 102 % of control and 109 % of control. For the same molecule, the T/C [8] was 113 % of control, the T/C (endpoint: mean survival time, dose: 12.5 mg/kg/injection, schedule: Q01DX009 (ip), vehicle: saline) was 100 % of control and the T/C (endpoint: mean survival time, dose: 20.0 mg/kg/injection, schedule: Q01DX001 (ip), vehicle: saline) was 98 % of control and 91 % of control. The T/C (endpoint: mean survival time, dose: 25.0 mg/kg/injection, schedule: Q01DX009 (ip), vehicle: saline) was 99 % of control and 107 % of control, the T/C (endpoint: mean survival time, dose: 25.0 mg/kg/injection, schedule: Q04DX003 (ip), vehicle: saline) was 87 % of control and the T/C (endpoint: mean survival time, dose: 50.0 mg/kg/injection, schedule: Q01DX009 (ip), vehicle: saline) was 96 % of control. The T/C (endpoint: mean survival time, dose: 100.0 mg/kg/injection, schedule: Q01DX009 (ip), vehicle: saline) was 96 % of control.

With `O=C1O/C(=C\c2ccccc2)C(O)=C1c1ccccc1` the T/C [9] was 100 % of control.

In the case of `O=C(NCc1ccco1)c1cccc(F)c1`, the T/C [4] is reported as 93 % of control, the T/C [5] is reported as 95 % of control and the T/C [1] is reported as 104 % of control and 109 % of control.

With `Br/C(=N\Nc1nn[nH]n1)c1ccccc1` the T/C [10] was 93 % of control, the T/C [11] was 98 % of control and the T/C (endpoint: mean survival time, dose: 400.0 mg/kg/injection, schedule: Q01DX009 (ip), vehicle: saline with Tween-80) was 95 % of control.

In the case of `N#CCCC1C(C#N)C2CC1C1C3CCC(C3)C21` (centres undefined), the T/C (endpoint: mean survival time, dose: 100.0 mg/kg/injection, schedule: Q01DX009 (ip), vehicle: other) is reported as 100 % of control, the T/C (endpoint: mean survival time, dose: 200.0 mg/kg/injection, schedule: Q01DX009 (ip), vehicle: other) is reported as 101 % of control and the T/C (endpoint: mean survival time, dose: 400.0 mg/kg/injection, schedule: Q01DX009 (ip), vehicle: other) is reported as 90 % of control.

For `Cc1cc(N=Nc2cccc([N+](=O)[O-])c2)cc(C(=O)O)c1O`, the T/C (endpoint: mean survival time, dose: 6.25 mg/kg/injection, schedule: Q01DX001 (ip), vehicle: Klucel (hydroxypropylcellulose) (HPC)) was 102 % of control, the T/C (endpoint: mean survival time, dose: 12.5 mg/kg/injection, schedule: Q01DX001 (ip), vehicle: Klucel (hydroxypropylcellulose) (HPC)) was 94 % of control and the T/C (endpoint: mean survival time, dose: 25.0 mg/kg/injection, schedule: Q01DX001 (ip), vehicle: Klucel (hydroxypropylcellulose) (HPC)) was 89 % of control.

For `C=C(C)C(=NC)Nc1ccc(Cl)c(Cl)c1`, the T/C (endpoint: mean survival time, dose: 222.0 mg/kg/injection, schedule: Q01DX Z (ip), vehicle: methylcellulose (MC)) was 98 % of control, the T/C (endpoint: mean survival time, dose: 333.0 mg/kg/injection, schedule: Q01DX Z (ip), vehicle: methylcellulose (MC)) was 91 % of control and the T/C (endpoint: mean survival time, dose: 500.0 mg/kg/injection, schedule: Q01DX Z (ip), vehicle: methylcellulose (MC)) was 93 % of control.

`CN(C)C(=O)C1C2CC3OC(=O)C1C3C2` (centres undefined) was tested, and the T/C [6] was 100 % of control and 104 % of control, the T/C [7] was 94 % of control and 108 % of control and the T/C (endpoint: mean survival time, dose: 400.0 mg/kg/injection, schedule: Q04DX003 (ip), vehicle: saline) was 100 % of control and 104 % of control.

`NC(=O)N/N=C(\CCl)c1ccccc1` was tested, and the T/C [8] was 93 % of control.

For `CCS(=O)(=O)CS(=O)(=O)C(C)(C)C`, the T/C (endpoint: mean survival time, dose: 100.0 mg/kg/injection, schedule: Q01DX001 (ip), vehicle: Klucel (hydroxypropylcellulose) (HPC)) was 98 % of control, the T/C (endpoint: mean survival time, dose: 200.0 mg/kg/injection, schedule: Q01DX001 (ip), vehicle: Klucel (hydroxypropylcellulose) (HPC)) was 91 % of control and the T/C [3] was 94 % of control.

In the case of `CNC1(C(N)=O)CCN(Cc2ccccc2)CC1`, the T/C (endpoint: mean survival time, dose: 50.0 mg/kg/injection, schedule: Q01DX009 (ip), vehicle: saline with Tween-80) is reported as 99 % of control, the T/C [10] is reported as 94 % of control and the T/C (endpoint: mean survival time, dose: 100.0 mg/kg/injection, schedule: Q04DX003 (ip), vehicle: saline with Tween-80) is reported as 95 % of control. For the same molecule, the T/C [11] was 90 % of control and the T/C (endpoint: mean survival time, dose: 200.0 mg/kg/injection, schedule: Q04DX003 (ip), vehicle: saline with Tween-80) was 101 % of control.

With `[C-]#[N+]CCc1ccccc1` the T/C [9] was 98 % of control and the T/C (endpoint: mean survival time, dose: 200.0 mg/kg/injection, schedule: Q01DX001 (ip), vehicle: saline with Tween-80) was 96 % of control.
